Assay results: EP0284686A1, “Condensed triazoles, their preparation and their use as medicines” (BEECHAM GROUP PLC, priority 1986, dated 1988)

Assays:
[1] = target: T1, RBL-1 5-lipoxygenase (Rattus norvegicus, UniProt P12527); test: RBL-1 5-lipoxygenase screen; assay type: biochemical; settings: 10,000g supernatant from RBL-1 cells, formation of 5-HETE and 5,12-diHETE from [1-14C] arachidonic acid, read-out: Percentage inhibition of RBL-1 5-lipoxygenase at 20µM
T1 construct: 5-Lipoxygenase enzyme was prepared as a 10,000g supernatant from RBL-1 cells; endogenous in cells; host or cells: RBL-1 cells (10,000g supernatant of homogenate)
T1 sequence (P12527 1-673): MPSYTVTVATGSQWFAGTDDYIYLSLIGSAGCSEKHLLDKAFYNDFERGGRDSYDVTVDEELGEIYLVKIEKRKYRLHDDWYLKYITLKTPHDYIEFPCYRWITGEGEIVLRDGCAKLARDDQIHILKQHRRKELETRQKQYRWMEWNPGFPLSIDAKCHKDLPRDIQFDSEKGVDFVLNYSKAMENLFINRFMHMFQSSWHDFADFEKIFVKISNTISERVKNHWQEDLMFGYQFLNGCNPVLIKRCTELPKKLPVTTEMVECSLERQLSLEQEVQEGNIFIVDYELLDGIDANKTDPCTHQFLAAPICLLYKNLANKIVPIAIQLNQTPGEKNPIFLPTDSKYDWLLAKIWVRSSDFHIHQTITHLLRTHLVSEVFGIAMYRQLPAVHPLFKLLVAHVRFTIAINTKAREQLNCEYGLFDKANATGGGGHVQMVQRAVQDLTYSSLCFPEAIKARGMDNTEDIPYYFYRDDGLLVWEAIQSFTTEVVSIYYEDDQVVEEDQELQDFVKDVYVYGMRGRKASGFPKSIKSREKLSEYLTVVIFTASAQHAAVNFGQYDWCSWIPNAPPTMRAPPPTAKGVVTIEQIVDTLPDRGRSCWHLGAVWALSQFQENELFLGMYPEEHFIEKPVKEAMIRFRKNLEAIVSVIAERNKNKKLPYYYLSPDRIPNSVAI
Experimental: 5-Lipoxygenase enzyme was prepared as a 10,000g supernatant from RBL-1 cells by the method of Jakschik (Jakschik, B.A., F.F. Sun, L.M.Lee, and M.M. Steinhoff, 1980, Biochem. Biophys. Res.Comm. 95 103). The 10,000g supernatant was diluted with homogenization buffer to the equivalent of 1.5 - 2.5 × 10⁷ cells. ml.⁻¹ and made 2mM with respect to CaCl₂. Aliquots of 0.5ml were then dispensed into tubes, and incubated at 29°C with 5µl ethanol or compound in ethanol at the desired concentration for 2min. Then [1-¹⁴C] arachidonic acid was added in buffer to give a final concentration of 6.3µM and 0.2µCi per incubation, and the reaction continued at 29°C for 2min. The reaction was terminated by adding 1ml of acetone and cooling on ice, 0.5ml of ice-cold saline and 100µl of 2N formic acid were added, and the mixture was extracted with 2 × 2ml of chloroform. The extract was stored under N₂ at -20°C until analysis by chromatography. Activity was measured as the percentage of total radioactivity found in 5-HETE and 5,12-diHETE, and inhibition calculated as the decrease in formation of the sum of these two species in compound-treated incubates relative to control incubations.

[2] = tested on: passive peritoneal anaphylaxis; test: Rat passive peritoneal anaphylaxis (PPA); assay type: in vivo; settings: i.p., final concentration 2×10⁻⁴M, contact time 2½ minutes
Experimental: The method is essentially similar to that described previously by Ross et al (Ross, Janet W., Smith, H. and Spicer, Barbara A. Increased vascular permeability during passive peritoneal anaphylaxis in the rat. Int. Arch. Allergy appl. Immun. 51, 226, 1976.)
Charles River Sprague Dawley male rats of 225-275 g and Dunkin Hartley male white guinea pigs of 250-300 g were used.
Charles River Sprague Dawley male rats of 225 - 275 g were given intraperitoneal injections of 0.5 ml of either Bordetella pertussis vaccine (4 × 10¹⁰ organisms/ml; Burroughs Wellcome, London) or Pertussis vaccine absorbed (not less than 41.u. B. pertussis antigen with aluminium hydroxide; The Lister Institute Elstree, England), and subcutaneous injections of 0.5ml of an emulsion of 100 mg of ovalbumin (chicken egg albumin; crystallised and lyophilised, grade V, Sigma, London) in 2ml of isotonic saline and 3ml of incomplete Freund's adjuvant. The rats were bled by cardiac puncture on day 18, the blood was pooled and the serum separated, stored at -20°C and thawed only once before use. The serum produced 72 hour passive cutaneous anaphylaxis activity in recipient rats to a dilution of 1:64 to 1:32 which was decreased to a dilution of less than 1:2 by heating at 56°C for 4 hours.
Rats were given intraperitoneal injections of 2 ml of a 1:5 dilution of the rat anti-serum in isotonic saline. Two hours later 0.3ml of 5% solution of Pontamine Sky Blue (Raymond A. Lamb, London) in isotonic saline was injected intraveneously, followed by an intraperitoneal injection of the test compound in 1 ml of saline; (control rats received 1 ml of saline); followed 2.5 minutes later by an intraperitoneal injection of 5 ml of a Tyrode solution containing 50µg/ml heparin and 0.4 mg/ml of ovalbumin. The concentrations of the compounds were quoted as that in the 6 ml of fluid injected intraperitoneally. […]
The optical densities (OD) of the supernatants which were not contaminated with blood were determined immediately at 625nm. […]

SMILES | inhibition at 20 µM [1] [%] | Percentage inhibition SRS-A ([2]; SRS-A in peritoneal fluid assayed on guinea pig ileum) | Percentage inhibition Dye ([2]; dye in peritoneal fluid (OD 625nm)) | Percentage inhibition Histamine ([2]; histamine in peritoneal fluid)
Cc1ccc(O)c2c1nnn2Cc1ccccc1 [Example 1, 3-Benzyl-4-hydroxy-7-methylbenzotriazole] | 89 | – | – | –
Cc1ccc(O)c2nn(Cc3ccccc3)nc12 [Example 2, 2-Benzyl-4-hydroxy-7-methylbenzotriazole] | 81 | 49 | 30 | 45
